Like-named read-outs stand apart in the source and are kept apart here.
What was measured:
[1] = biological target: cellular cGAS activity in dsDNA-stimulated human whole blood (Homo sapiens (Human), UniProt Q8N884); assay: Human whole blood assay (hWB IC50): IFNα2a production after dsDNA transfection; format: cell-based;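 further: IFNα-2a in plasma measured by MSD electrochemiluminescence immunoassay after 22 h at 37 °C, 8-point dilution series from 10 µM top concentration, DMSO wells as controls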
Protocol: 6.3 Method: Human Whole Blood Assay (Human WB IC50) For the detection of cellular cGAS activity human whole blood was stimulated by transfection with double stranded DNA. Pathway activity was monitored by measuring the IFNα2α production.
Compounds were delivered as 10 mM DMSO solution and serially diluted and transferred to the 96-well cell culture plate (Corning #3595), prefilled with 20 μl OptiMEM (Gibco, #11058-021) in each well, using an Echo acoustic dispenser. Typically, 8 concentrations were used with the highest concentration at 10 μM in the final assay volume followed by ˜1:5 dilution steps. DMSO concentration was set to 0.1% in the final assay volume. The 96-well assay plate contained 10 test compounds, and DMSO in control wells.
Collection of human whole blood from 3 or more healthy donors (male or female, no medication for 7 days except contraceptive and thyroxine) as Na-Citrate blood (e.g. 3.8% in Monovettes from Sarstedt) was conducted in parallel. Whole blood was kept at room temperature for a maximum of 3 hours after collection until use in the assay.
160 μl of the whole blood samples was transferred to each well of the 96-well assay plates filled with compound/OptiMEM. All assay plates were prepared as duplicates with blood from different donors. Blood plates were kept at room temperature for 60 minutes and continuous shaking with 450 rpm, covered with the lid, but not sealed.
20 μl OptiMEM and 9.6:1 Fugene was added to all low control wells.
After covering assay plates with area seals and the lid, blood plates were kept at room temperature for 30 minutes and continuous shaking with 450 rpm, followed by an overnight incubation of 22 h at 37° C. in the incubator, without shaking.
For the detection of IFNα-2a in human plasma, the biotinylated capture antibody (Antibody set IFNA2, Meso Scale Diagnostics #B21VH-3, including coating and capture antibody) was diluted 1:17.5 in Diluent 100 (Meso Scale Diagnostics #R50AA-4), according to the manufacturer's directions. U-Plex MSD GOLD 96-well Small Spot Strepavidin SECTOR Plates (Meso Scale Diagnostics #L45SA-5) were coated with 25 μl diluted capture antibody. Coated plates were incubated for 60 min at room temperature under continuous shaking at 700 rpm. MSD IFNα-2a plates were washed three times with 150 μl wash buffer (1×HBSS, 0.05% Tween).
After blocking the plates with 100 μl block solution/well (1×HBSS with 0.2% Tween, 2% BSA) for 60 min at room temperature and continuous shaking at 700 rpm, plates were emptied as dry as possible by dumping just before continuing with the human plasma.
Whole Blood assay plates were centrifuged at 1600 rpm for 10 minutes. 25 μl of supernatant was transferred with a pipetting robot from each whole blood plate to the corresponding IFNα-2a plate.
Plates were sealed with microplate seals and kept at room temperature again under continuous shaking at 700 rpm for two hours.
Next MSD IFNα-2a plates were washed three times with 150 μl wash buffer (1×HBSS, 0.05% Tween), before adding 25 μl MSD SULFO-TAG IFNα-2a Antibody solution (1:100 diluted in Diluent 3 (Meso Scale Diagnostics #R50AP-2) to each well of the plates.
Afterwards plates were sealed with microplate seals and kept at room temperature again under continuous shaking at 700 rpm for two hours. Finally, MSD IFNα-2a plates were washed three times with 150 μl wash buffer (1×HBSS, 0.05% Tween). 150 μl 2× Read buffer was added to each well and plates were immediately measured with the MSD Sector S600 Reader using the vendor barcode.
For data evaluation and calculation,% control calculation of each well was based on the mean of high (DNA stimulated control) and mean of low (unstimulated control) controls by using the following formula:
The IC50-values were calculated using the standard 4 parameter logistic regression formula.

[2] = test system: pathway directly downstream of cGAS in cGAMP-stimulated THP1-Dual cells; assay: cGAMP stimulated counter cell assay (THP1(cGAMP) IC50): IFN induction in cGAMP-stimulated THP1-Dual cells; format: cell-based, human; conditions: for IC50: Homo sapiens, THP1-Dual; for Ratio THP(cGAMP) IC50/ THP(vir) IC50: selectivity for cGAS inhibition
Source text: 6.2 Method: Human cGAS Cell Assay and cGAMP Stimulated Counter Cell Assay (THP1(vir) IC50 and THP1(cGAMP) IC50)
THP1-Dual™ cells (InvivoGen #thpd-nfis) expressing IRF dependent Lucia luciferase reporter were used as basis for both assays. For the detection of cellular cGAS activity cells were stimulated by a baculovirus (pFastbac-1, Invitrogen, no coding insert) infection that delivers the cGAS enzyme stimulating double-stranded DNA (measurement of THP1(vir) IC50).
For the counter assay, cells were stimulated by cGAMP (SigmaAldrich #SML1232) to activate the identical pathway independent and directly downstream of cGAS (measurement of THP1(cGAMP) IC50). Pathway activity was monitored by measuring the Lucia luciferase activity induced by either DNA stimulated cGAS enzyme activity (measurement of THP1(vir) IC50) or by cGAMP directly (measurement of THP1(cGAMP) IC50, counter assay).
Compounds were delivered in 10 mM DMSO solution, serially diluted and transferred to the 384 well assay plate (Greiner #781201) using an Echo acoustic dispenser. Typically, 8 concentrations were used with the highest concentration at 10 μM in the final assay volume followed by ˜1:5 dilution steps. DMSO concentration was set to 1% in the final assay volume. The 384 well assay plate contained 21 test compounds (column 1-22), and DMSO in column 23 and 24.
Cells, cultivated according to manufacturer conditions, were harvested by centrifugation at 300 g/10 min and were then resuspended and diluted to 1.66E5 cells/ml in fresh cell culture medium (RPMI 1640 (Gibco #A10491-01), 10% FCS (Gibco #10500), 1× GlutaMax (Gibco #35050-061), 1× Pen/Strep solution (Gibco #15140-122), 100 μg/ml Normocin (InvivoGen #ant-nr), 100 μg/ml Zeocin (InvivoGen #ant-zn), 10 μg/ml Blasticidin S (Life Technologies #A11139-03)). The baculovirus solution was then added 1:200 (have varied according to virus batch) to the cells (measurement of THP1(vir) IC50). […] 30 μL of the cell/virus-mix were added to each well of the compound plate from column 1-23 via MultiDrop Combi dispenser (5000 cells/well). In column 24, 30 μl/5000 cells/well without virus were added as a low control.
The plates were then incubated for 18 h at 37° C. in a humidified incubator.
Following that, 15 μL of QuantiLuc detection reagent (InvivoGen #rep-qlcg5) were added to each well using a MultiDrop Combi. Measurement was done immediately after the addition using an EnVision reader (US-luminescence read-mode).
Data Evaluation and Calculation:
For data evaluation and calculation, the measurement of the low control was set as 0% control and the measurement of the high control was set as 100% control. The IC50 values were calculated using the standard 4 parameter logistic regression formula. Calculation: [y=(a−d)/(1+(x/c)^b)+d], a=low value, d=high value; x=conc M; c=IC50 M; b=slope

[3] = biological target: cellular cGAS activity in baculovirus-stimulated THP1-Dual cells (Homo sapiens (Human), UniProt Q8N884); assay: Human cGAS cell assay (THP1(vir) IC50): IFN induction in virus-stimulated THP1-Dual cells, IRF Lucia luciferase reporter; format: cell-based;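 further: Eight-point dilution series starting at 10 µM, 1% DMSO, 18 h at 37 °C, luminescence read-out, virus-free wells as 0% and DMSO-treated virus-stimulated wells as 100%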
[4] = biological target: Human cGAS enzyme (Homo sapiens (Human), UniProt Q8N884); assay: Human cGAS enzyme assay (hcGAS IC50, in vitro), cGAMP formation by RapidFire MS; format: biochemical;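 further: recombinant human cGAS activated by 45 bp dsDNA with 30 µM each ATP and GTP, 90 min, cGAMP vs cyclic-di-GMP standard by MS, 8-point titration from 10 µM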
[5] = Table 1, dsDNA-stimulated human whole blood
[6] = Table 1, cGAMP-stimulated THP1 cells, read-out: THP(cGAMP) IC50
[7] = Table 1, virus-stimulated THP1 cells, read-out: THP(vir) IC50
[8] = Table 2, compounds from WO 2020/142729
[9] = Table 2, compounds from WO 2020/142729, read-out: THP1(cGAMP) IC50
[10] = Table 2, compounds from WO 2020/142729, read-out: THP1(vir) IC50
[11] = Table 2, compounds from WO 2020/142729 re-tested in the applicant's assay

Sequence of Human cGAS enzyme (Q8N884 whole entry): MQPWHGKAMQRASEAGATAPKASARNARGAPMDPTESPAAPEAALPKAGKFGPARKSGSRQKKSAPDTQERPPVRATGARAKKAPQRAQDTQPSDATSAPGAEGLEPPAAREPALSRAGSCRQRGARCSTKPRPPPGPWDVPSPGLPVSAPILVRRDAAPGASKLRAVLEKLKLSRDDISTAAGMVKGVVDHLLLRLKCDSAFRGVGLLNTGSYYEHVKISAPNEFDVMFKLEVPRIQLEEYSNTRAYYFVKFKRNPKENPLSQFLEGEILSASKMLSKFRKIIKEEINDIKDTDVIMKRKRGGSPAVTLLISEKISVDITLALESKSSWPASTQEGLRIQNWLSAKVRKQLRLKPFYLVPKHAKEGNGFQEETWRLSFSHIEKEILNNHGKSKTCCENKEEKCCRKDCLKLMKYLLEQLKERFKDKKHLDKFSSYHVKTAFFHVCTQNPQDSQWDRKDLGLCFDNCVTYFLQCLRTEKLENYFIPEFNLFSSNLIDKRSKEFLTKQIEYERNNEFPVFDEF
Sequence of cellular cGAS activity in baculovirus-stimulated THP1-Dual cells (Q8N884 whole entry): as above
Sequence of cellular cGAS activity in dsDNA-stimulated human whole blood (Q8N884 whole entry): as above

C[C@H]1CN2CC[C@]1(F)c1cc(Cl)cnc1O[C@H]1C[C@@H](C(=O)O)N(C1)c1nc(nc3c1oc1cc(Cl)ccc13)C(F)(F)CCCOCC2=O [Example 33]
IC50 [1, 5]: 16 nM
IC50 [2, 6]: 6400 nM
Ratio THP(cGAMP) IC50/ THP(vir) IC50 ([2]; Table 1): 2085
IC50 [3, 7]: 3 nM
IC50 ([4]; Table 1): 5 nM

CC(C)(C(=O)N[C@H]1C[C@@H](C(=O)O)N(c2nc(C(F)(F)F)nc3c2oc2ccccc23)C1)c1cn[nH]c1 [compound 58]
IC50 [1, 8]: > 9980 nM
IC50 [2, 9]: 23000 nM
IC50 [3, 10]: 21000 nM
IC50 [4, 11]: 320 nM

Cc1nc(N2C[C@@H](Cc3nn[nH]n3)C[C@H]2C(=O)O)c2oc3ccccc3c2n1 [Example No. 25 of WO 2020/142729, reference compound]
IC50 ([3]; virus-stimulated THP1 cells, read-out: THP1(vir) IC50): 17000 nM
IC50 [4, 11]: 55 nM

C[C@H]1CN2CC[C@]1(F)c1cccnc1O[C@H]1C[C@@H](C(=O)O)N(C1)c1nc(nc3c1oc1ccccc13)CCCOCCC2=O [Example 24, (1R,9S,11S,34S)-1-fluoro-34-methyl-31-oxo-8,15,28-trioxa-6,12,23,32,37-pentaazaheptacyclo-[30.2.2.1^9,12.1^13,24.0^2,7.0^14,22.0^16,21]octatriaconta-2,4,6,13(37),14(22),16(21),17,19,23-nonaene-11-carboxylic acid]
IC50 [1, 5]: 801 nM
IC50 [2, 6]: > 10000 nM
Ratio THP(cGAMP) IC50/ THP(vir) IC50 ([2]; Table 1): 16
IC50 [3, 7]: 640 nM
IC50 ([4]; Table 1): 28 nM

C[C@H]1CN2CC[C@]1(F)c1cc(Cl)cnc1O[C@H]1C[C@@H](C(=O)O)N(C1)c1nc(nc3c1oc1ccccc13)CC(=O)NCCOC2=O [Example 02, (1R,9S,11S,34S)-4-chloro-1-fluoro-34-methyl-26,31-dioxo-8,15,30-trioxa-6,12,23,27,32,37-hexaazaheptacyclo[30.2.2.1^9,12.1^13,24.0^14,22..0^16,21]octatriaconta-2,4,6,13(37),14(22),16(21),17,19,23-nonaene-11-carboxylic acid]
IC50 [1, 5]: 115 nM
IC50 [2, 6]: > 10000 nM
Ratio THP(cGAMP) IC50/ THP(vir) IC50 ([2]; Table 1): 94
IC50 [3, 7]: 110 nM
IC50 ([4]; Table 1): 17 nM

CC(=O)c1cnc2c(c1)[C@@]1(F)CCN(C[C@@H]1C)C(=O)CCCOCCc1nc(c3oc4ccccc4c3n1)N1C[C@H](C[C@H]1C(=O)O)O2 [Example 19]
IC50 [1, 5]: 146 nM
IC50 [2, 6]: > 10000 nM
Ratio THP(cGAMP) IC50/ THP(vir) IC50 ([2]; Table 1): 136
IC50 [3, 7]: 73 nM
IC50 ([4]; Table 1): 8 nM

C[C@H]1CN2CC[C@]1(F)c1cc(Cl)cnc1O[C@H]1C[C@@H](C(=O)O)N(C1)c1nc(nc3c1oc1ccccc13)CCCOCCC2=O [Example 23, (1R,9S,11S,34S)-4-Chloro-1-fluoro-34-methyl-31-oxo-8,15,28-trioxa-6,12,23,32,37-pentaazabestacyclo[30.2.2.1^9,12.1^13,24.0^2,7.0^14,22.0^16,21]octatriaconta-2,4,6,13(37),14(22),16(21),17,19,23-nonaene-11-carboxylic acid]
IC50 [1, 5]: 114 nM
IC50 [2, 6]: 10000 nM
Ratio THP(cGAMP) IC50/ THP(vir) IC50 ([2]; Table 1): 148
IC50 [3, 7]: 69 nM
IC50 ([4]; Table 1): 12 nM

C[C@H]1CN2CC[C@]1(F)c1cc(Cl)cnc1O[C@H]1C[C@@H](C(=O)O)N(C1)c1nc(nc3c1oc1ccccc13)C(F)(F)CCCCCC2=O [Example 05, (1R,9S,11S,34S)-4-chloro-1,25,25-trifluoro-34-methyl-31-oxo-8,15-dioxa-6,12,23,32,37-pentaazaheptacyclo[30.2.2.1^9,12.1^13,24.0^2,7.0^14,22.0^16,21]octatriaconta-2,4,6,13,16,18,20,22,24(37)-nonaene-11-carboxylicacid]
IC50 [1, 5]: 114 nM
IC50 [2, 6]: 9400 nM
Ratio THP(cGAMP) IC50/ THP(vir) IC50 ([2]; Table 1): 158
IC50 [3, 7]: 59 nM
IC50 ([4]; Table 1): 12 nM

C[C@H]1CN2CC[C@]1(F)c1cc(Cl)cnc1O[C@H]1C[C@@H](C(=O)O)N(C1)c1nc(nc3c1oc1ccccc13)CCOCCCC2=O [Example 16]
IC50 [1, 5]: 101 nM
IC50 [2, 6]: 6600 nM
Ratio THP(cGAMP) IC50/ THP(vir) IC50 ([2]; Table 1): 184
IC50 [3, 7]: 36 nM
IC50 ([4]; Table 1): 11 nM

C[C@H]1CCCOCc2nc(c3oc4ccccc4c3n2)N2C[C@H](C[C@H]2C(=O)O)Oc2ncc(Cl)cc2[C@@]2(F)CCN(C[C@@H]2C)C1=O (single isomer, unassigned) [Example 09]
IC50 [1, 5]: 161 nM
IC50 [2, 6]: 3500 nM
Ratio THP(cGAMP) IC50/ THP(vir) IC50 ([2]; Table 1): 15
IC50 [3, 7]: 240 nM
IC50 ([4]; Table 1): 45 nM

C[C@H]1CN2CC[C@]1(F)c1cc(Cl)cnc1O[C@H]1C[C@@H](C(=O)O)N(C1)c1nc(nc3c1oc1ccccc13)COCCCCCC2=O [Example 12]
IC50 [1, 5]: 84 nM
IC50 [2, 6]: 10000 nM
Ratio THP(cGAMP) IC50/ THP(vir) IC50 ([2]; Table 1): 17
IC50 [3, 7]: 610 nM
IC50 ([4]; Table 1): 17 nM

C[C@H]1CN2CC[C@]1(F)c1cc(Cl)cnc1O[C@H]1C[C@@H](C(=O)O)N(C1)c1nc(nc3c1oc1ccccc13)CCOCCOC2=O [Example 34, (1R,9S,11S,34S)-4-chloro-1-fluoro-34-methyl-31-oxo-8,15,27,30-tetraoxa-6,12,23,32,37-pentaaza-heptacyclo[30.2.2.1^9,12.1^13,24.0^2,7.0^14,22.0^16,21]octatriaconta-2,4,6,13(37),14(22),16(21),17,19,23-nonaene-11-carboxylic acid]
IC50 [1, 5]: 41 nM
IC50 [2, 6]: 16000 nM
Ratio THP(cGAMP) IC50/ THP(vir) IC50 ([2]; Table 1): 450
IC50 [3, 7]: 36 nM
IC50 ([4]; Table 1): 8 nM

C#Cc1cnc2c(c1)[C@@]1(F)CCN(C[C@@H]1C)C(=O)CCCOCCc1nc(c3oc4ccccc4c3n1)N1C[C@H](C[C@H]1C(=O)O)O2 [Example 18, (1R,9S,11S,34S)-4-ethynyl-1-fluoro-34-methyl-31-oxo-8,15,27-trioxa-6,12,23,32,37-pentaazaheptacyclo[30.2.2.1^9,12.1^13,24.0^2,7.0^14,22.0^16,21]octatriaconta-2,4,6,13,16,18,20,22,24(37)-nonaene-11-carboxylic acid]
IC50 [1, 5]: 18 nM
IC50 [2, 6]: 4300 nM
Ratio THP(cGAMP) IC50/ THP(vir) IC50 ([2]; Table 1): 122
IC50 [3, 7]: 35 nM
IC50 ([4]; Table 1): 6 nM

Cc1nc(N2C[C@@H](Cc3nn[nH]n3)C[C@H]2C(=O)O)c2oc3ccccc3c2n1 [Example 25]
IC50 [1, 8]: > 9990 nM
IC50 [2, 9]: > 17000 nM
IC50 [3, 10]: > 17000 nM

C[C@H]1CN2CC[C@]1(F)c1cc(Cl)cnc1O[C@H]1C[C@@H](C(=O)O)N(C1)c1nc(nc3c1oc1ccccc13)CCCCOC2=O [Example 35, (1R,9S,11S,33S)-4-chloro-1-fluoro-33-methyl-30-oxo-8,15,29-trioxa-6,12,23,31,36-pentaazaheptacyclo[29.2.2.1^9,12.1^13,24.0^2,7.0^14,22.0^16,21]heptatriaconta-2,4,6,13(36),14(22),16(21),17,19,23-nonaene-11-carboxylic acid]
IC50 [1, 5]: 409 nM
IC50 [3, 7]: 830 nM
